In US6806230B1, “Pyrimidine derivatives and herbicides containing them” (Kumiai Chemical Industry Co., Ltd., priority 1999, dated 2004):

How the values were obtained:
Type in all cases: in vivo
barnyard grass (Eo) [1] = test: Test Example 1: herbicidal effects by flooded paddy field treatment; parameters: herbicidal effects, Eo (barnyard grass):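 0-5 growth inhibition grade; 5 = over 90%; 4 = 70-90%; 3 = 50-70%; 2 = 30-50%; 1 = 10-30%; 0 = under 10%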; conditions: dose 100 g active ingredient per 10 ares, examined on the 21st day after treatment, standards of Table 44
How it was run: (§1)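 Flooded paddy pre-emergence test: sowing into puddled soil under 3 cm water, then dropwise water-surface treatment the following day with diluted wettable powder at 100 g active ingredient per 10 ares. Greenhouse cultivation followed, and weeds were rated against a standard scale at 21 days.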

barnyard grass (Eo) [2] = test: Test Example 4: selectivity for a crop plant by flooded paddy field treatment; parameters: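 0-5 growth inhibition grade; 5 = over 90%; 4 = 70-90%; 3 = 50-70%; 2 = 30-50%; 1 = 10-30%; 0 = under 10%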; conditions: barnyard grass, dose 25 gai/10a, 21st day after treatment, index per Table 44
How it was run: (§2)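 Steps: fill pot with paddy soil and puddle; sow weed seeds; transplant rice at second-leaf stage; flood to 3 cm. Next day, drip the water-diluted wettable powder onto the water (25 g a.i./10 ares). Grow in greenhouse and rate herbicidal effect on day 21.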

monochoria (Mo) [3] = test: as above; parameters: scale not given here; conditions: monochoria, dose 25 gai/10a, 21st day after treatment, index per Table 44
How it was run: as §2

rice (Or) = test: as above; parameters: scale not given here; conditions: rice transplanted at second leaf stage, dose 25 gai/10a, 21st day after treatment, index per Table 44
How it was run: as §2

barnyard grass (Ec) [4] = test: Test Example 3: herbicidal effects by foliage treatment in upland field; parameters: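 0-5 growth inhibition grade; 5 = over 90%; 4 = 70-90%; 3 = 50-70%; 2 = 30-50%; 1 = 10-30%; 0 = under 10%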; conditions: dose 100 g active ingredient per 10 ares, examined on the 14th day after treatment
How it was run: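 Barnyard grass and green foxtail were grown in upland soil for 2 weeks in a greenhouse. A water-diluted wettable powder was sprayed over the foliage at 100 l per 10 ares, giving 100 g active ingredient per 10 ares. Herbicidal effect was scored on day 14 after treatment.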

monochoria (Mo) [5] = test: Test Example 1: herbicidal effects by flooded paddy field treatment; parameters: herbicidal effects, Mo (monochoria):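 0-5 growth inhibition grade; 5 = over 90%; 4 = 70-90%; 3 = 50-70%; 2 = 30-50%; 1 = 10-30%; 0 = under 10%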; conditions: dose 100 g active ingredient per 10 ares, examined on the 21st day after treatment, standards of Table 44
How it was run: as §1

barnyard grass (Ec) [6] = test: Test Example 2: herbicidal effects by upland soil treatment; parameters: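 0-5 growth inhibition grade; 5 = over 90%; 4 = 70-90%; 3 = 50-70%; 2 = 30-50%; 1 = 10-30%; 0 = under 10%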; conditions: dose 100 g active ingredient per 10 ares, examined on the 21st day after treatment
How it was run: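 Pre-emergence test: barnyard grass and green foxtail sown in upland soil, then soil surface sprayed with wettable-powder formulation at 100 g active ingredient per 10 ares (100 l per 10 ares). Grown in greenhouse; herbicidal effect scored on a rating scale 21 days after treatment.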

SMILES | herbicidal effects, Eo (barnyard grass) (barnyard grass (Eo) [1]) | Eo (herbicidal effect index) (barnyard grass (Eo) [2]) | Mo (herbicidal effect index) (monochoria (Mo) [3]) | Or (herbicidal effect index on crop) (rice (Or)) | Ec (herbicidal effects, index) (barnyard grass (Ec) [4]) | herbicidal effects, Mo (monochoria) (monochoria (Mo) [5]) | Ec (herbicidal effects, index) (barnyard grass (Ec) [6])
CON=Cc1ncncc1C(C(C)C)N(C)C(=O)Cc1ccccc1 (racemic) [1-496] | 5 | 5 | 5 | 1 | 4 | 5 | 5
CC(C)C(c1cncnc1C#N)N(C)C(=O)Cc1ccc(F)cc1 (racemic) [1-505] | 5 | 5 | 5 | 0 | 5 | 5 | 5
CC(C)C(c1cncnc1C#N)N(C)C(=O)Cc1ccc(Cl)cc1 (racemic) [1-506] | 5 | 5 | 5 | 1 | 4 | 5 | 5
Cc1ccc(CC(=O)N(C)C(c2cncnc2C#N)C(C)C)cc1 (racemic) [1-507] | 5 | 5 | 5 | 1 | 4 | 5 | 5
COC(C)(OC)c1ncncc1C(C(C)C)N(C)C(=O)Cc1ccc(Cl)cc1 (racemic) [1-517] | 5 | 5 | 5 | 1 | 4 | 5 | 5
C=CCN(C(=O)Cc1ccc(F)cc1)C(c1cncnc1C(F)(F)F)C(C)C (racemic) [1-519] | 5 | 5 | 5 | 1 | 4 | 5 | 5
CC(=O)c1ncncc1C(C(C)C)N(C)C(=O)Cc1ccc(F)cc1 (racemic) [1-527] | 5 | 5 | 5 | 1 | 4 | 5 | 5
CC(=O)c1ncncc1C(C(C)C)N(C)C(=O)Cc1ccc(Cl)cc1 (racemic) [1-528] | 5 | 5 | 5 | 1 | 4 | 5 | 5
CC(=O)c1ncncc1C(C(C)C)N(C)C(=O)Cc1ccc(C)cc1 (racemic) [1-529] | 5 | 5 | 5 | 1 | 5 | 5 | 5
CCc1ncncc1C(C(C)C)N(C)C(=O)N(C)c1ccc(C)cc1 (racemic) [1-541] | 5 | 5 | 5 | 1 | 4 | 5 | 5
CN(C(=O)Cc1ccc(F)cc1)C(c1ccccc1F)c1cncnc1C(F)(F)F (racemic) [1-547] | 5 | 5 | 5 | 1 | 4 | 5 | 5
C#CCN(C(=O)Cc1ccccc1)C(c1cncnc1CC)C(C)C (racemic) [1-558] | 5 | 5 | 5 | 1 | 4 | 5 | 5
C#CCN(C(=O)Cc1ccc(F)cc1)C(c1cncnc1CC)C(C)C (racemic) [1-559] | 5 | 5 | 5 | 1 | 4 | 5 | 5
CCc1ncncc1C(N(C)C(=O)Cc1ccc(Cl)cc1)C(C)(C)C (racemic) [1-566] | 5 | 5 | 5 | 1 | 4 | 5 | 5
C#CCN(C(=O)Cc1cccc(F)c1)C(c1cncnc1C(F)(F)F)C(C)C (racemic) [1-569] | 5 | 5 | 5 | 1 | 5 | 5 | 5
CCC(c1cncnc1C(C)(C)C)N(C)C(=O)Cc1ccc(Cl)cc1 (racemic) [1-572] | 5 | 5 | 5 | 1 | 4 | 5 | 5
CC(C)C(c1cncnc1C(F)(F)F)N(CC#N)C(=O)Cc1ccc(F)cc1 (racemic) [1-579] | 5 | 5 | 5 | 1 | 4 | 5 | 5
COCC(c1cncnc1C(C)C)N(C)C(=O)Cc1ccc(Cl)cc1 (racemic) [1-584] | 5 | 5 | 5 | 1 | 4 | 5 | 5
C#CCN(C(=O)Cc1ccccc1)C(CCC)c1cncnc1CC (racemic) [1-606] | 5 | 5 | 5 | 1 | 4 | 5 | 5
C#CCN(C(=O)Cc1ccc(F)cc1)C(CCC)c1cncnc1CC (racemic) [1-607] | 5 | 5 | 5 | 1 | 4 | 5 | 4
C#CCN(C(=O)Cc1ccc(C)cc1)C(CCC)c1cncnc1CC (racemic) [1-609] | 5 | 5 | 5 | 1 | 4 | 5 | 5
C#CCN(C(=O)Cc1ccc(F)cc1)C(CCC)c1cncnc1C(C)C (racemic) [1-611] | 5 | 5 | 5 | 1 | 4 | 5 | 5
CC(C)C(c1cncnc1C(F)(F)F)N(C)C(=O)Cc1ccc(Cl)s1 (racemic) [2-25] | 5 | 5 | 5 | 1 | 5 | 5 | 5
Cc1ccc(CC(=O)N(C)C(c2cncnc2C(F)(F)F)C(C)C)s1 (racemic) [2-50] | 5 | 5 | 5 | 1 | 4 | 5 | 5
CC(C)c1ncncc1C(C(C)C)N(C)C(=O)Cc1ccc(Cl)s1 (racemic) [2-71] | 5 | 5 | 5 | 1 | 5 | 5 | 5
